The values that follow come from ChEMBL document CHEMBL1143211, “Inhibitors of proteases and amide hydrolases that employ an alpha-ketoheterocycle as a key enabling functionality” (Bioorg Med Chem, 2008).

In general, Ki refers to a dissociation constant, usually derived from enzyme kinetics or from competition with a known ligand. Low readings indicate higher affinity, high ones lower affinity. The term IC50 denotes the point on the concentration scale where inhibition reaches its midpoint. Read a high IC50 as a need for much substance. For orientation: ED50 means the dose at which the effect has come halfway, by size or by number of responders. The low end stands for greater potency, the high end for weaker potency.

Molecules are shown by their SMILES. In brackets after ≈: the same amount, converted by molar mass.

One assay deals with Proline iminopeptidase (Serratia marcescens, UniProt O32449). The assay can be described thus: Inhibition of Serratia marcescens prolyl aminopeptidase.
Proline iminopeptidase, sequence (O32449 whole entry): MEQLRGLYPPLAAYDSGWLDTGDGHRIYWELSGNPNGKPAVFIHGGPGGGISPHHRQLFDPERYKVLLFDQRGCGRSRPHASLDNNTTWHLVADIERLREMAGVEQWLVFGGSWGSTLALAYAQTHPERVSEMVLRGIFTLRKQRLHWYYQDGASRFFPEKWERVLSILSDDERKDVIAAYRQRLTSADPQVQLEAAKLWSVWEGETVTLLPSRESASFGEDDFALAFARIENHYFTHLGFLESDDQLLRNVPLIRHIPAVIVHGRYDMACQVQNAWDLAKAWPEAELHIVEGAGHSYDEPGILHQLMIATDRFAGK
Assay [1] deals with Bifunctional purine biosynthesis protein ATIC (Homo sapiens, UniProt P31939). Nature of the assay: Inhibition of human aminoimidazole carboxamide transformylase.
Bifunctional purine biosynthesis protein ATIC, sequence (P31939 whole entry): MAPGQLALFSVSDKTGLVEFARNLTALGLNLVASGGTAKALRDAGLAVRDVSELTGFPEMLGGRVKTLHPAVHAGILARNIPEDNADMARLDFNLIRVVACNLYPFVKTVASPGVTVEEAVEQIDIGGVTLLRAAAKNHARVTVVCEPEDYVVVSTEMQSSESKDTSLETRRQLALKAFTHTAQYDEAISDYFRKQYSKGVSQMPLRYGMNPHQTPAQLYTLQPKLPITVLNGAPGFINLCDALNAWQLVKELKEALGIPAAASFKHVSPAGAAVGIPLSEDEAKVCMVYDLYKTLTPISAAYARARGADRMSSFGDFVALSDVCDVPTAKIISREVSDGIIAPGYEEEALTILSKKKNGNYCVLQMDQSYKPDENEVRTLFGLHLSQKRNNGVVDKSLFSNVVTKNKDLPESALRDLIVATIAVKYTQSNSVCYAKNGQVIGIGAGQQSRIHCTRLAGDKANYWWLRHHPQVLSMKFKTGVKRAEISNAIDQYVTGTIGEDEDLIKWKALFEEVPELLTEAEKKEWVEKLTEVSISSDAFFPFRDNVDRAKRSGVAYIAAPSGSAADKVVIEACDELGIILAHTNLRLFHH
Assay [2] can be described thus: Inhibition of Escherichia coli glycinamide ribonucleotide transformylase.
Assay [3] has as its target T1, Trifunctional purine biosynthetic protein adenosine-3 (Homo sapiens, UniProt P22102).
T1 sequence (P22102 whole entry): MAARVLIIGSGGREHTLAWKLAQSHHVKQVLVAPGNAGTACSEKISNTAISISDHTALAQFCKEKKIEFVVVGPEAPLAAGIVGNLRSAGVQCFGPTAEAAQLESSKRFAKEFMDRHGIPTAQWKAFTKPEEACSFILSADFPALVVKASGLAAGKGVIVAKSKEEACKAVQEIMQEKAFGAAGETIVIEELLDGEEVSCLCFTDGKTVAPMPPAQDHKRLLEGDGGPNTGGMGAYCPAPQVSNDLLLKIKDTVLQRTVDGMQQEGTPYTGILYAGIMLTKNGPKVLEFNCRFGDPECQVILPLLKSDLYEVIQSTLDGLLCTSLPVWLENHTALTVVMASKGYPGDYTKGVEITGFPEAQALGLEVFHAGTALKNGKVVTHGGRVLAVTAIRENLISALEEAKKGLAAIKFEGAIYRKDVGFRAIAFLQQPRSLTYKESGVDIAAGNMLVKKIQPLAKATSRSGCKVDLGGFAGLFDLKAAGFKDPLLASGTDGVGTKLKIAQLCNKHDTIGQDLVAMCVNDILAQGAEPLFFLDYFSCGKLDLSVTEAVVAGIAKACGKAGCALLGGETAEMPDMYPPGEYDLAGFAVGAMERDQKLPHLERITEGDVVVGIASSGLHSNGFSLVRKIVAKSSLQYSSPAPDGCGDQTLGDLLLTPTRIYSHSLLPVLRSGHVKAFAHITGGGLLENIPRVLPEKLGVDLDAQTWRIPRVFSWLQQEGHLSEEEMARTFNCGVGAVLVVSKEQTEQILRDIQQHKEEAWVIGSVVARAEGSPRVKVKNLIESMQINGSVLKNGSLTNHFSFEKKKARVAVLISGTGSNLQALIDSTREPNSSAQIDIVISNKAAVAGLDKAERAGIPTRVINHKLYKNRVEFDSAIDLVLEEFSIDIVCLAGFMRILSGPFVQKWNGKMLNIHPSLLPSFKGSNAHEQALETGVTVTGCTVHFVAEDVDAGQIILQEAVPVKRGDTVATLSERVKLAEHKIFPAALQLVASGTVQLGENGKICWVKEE
Nature of the assay: Inhibition of human glycinamide ribonucleotide transformylase.

The next assay concerns Osteoclast. Nature of the assay: Inhibition of bovine bone resorption in rabbit osteoclasts. In kind it is functional, cell-based. The following applies: Oryctolagus cuniculus.
The target in a further assay is Beta-lactamase (Enterobacter cloacae, UniProt P05364). The assay can be described thus: Inhibition of Enterobacter cloacae beta lactamase.
Beta-lactamase, sequence (P05364 whole entry): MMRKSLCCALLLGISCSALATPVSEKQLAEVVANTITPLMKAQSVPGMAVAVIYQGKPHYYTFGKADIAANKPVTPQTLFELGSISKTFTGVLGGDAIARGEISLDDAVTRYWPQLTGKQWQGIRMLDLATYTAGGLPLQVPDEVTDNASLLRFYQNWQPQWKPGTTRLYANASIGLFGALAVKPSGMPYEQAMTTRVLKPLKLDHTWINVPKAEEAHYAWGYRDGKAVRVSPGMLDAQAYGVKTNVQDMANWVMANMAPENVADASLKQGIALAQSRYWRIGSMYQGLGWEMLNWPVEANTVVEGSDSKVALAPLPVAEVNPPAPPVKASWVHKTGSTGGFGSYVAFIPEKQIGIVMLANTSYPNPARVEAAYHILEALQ
The next assay concerns Trypanosoma cruzi. The assay can be described thus: microbe, parasite or virus in culture. The following applies: read-out: ED50.
The test system of assay [4] is Trypanosoma brucei rhodesiense. Nature of the assay: microbe, parasite or virus in culture. As to conditions: read-out: ED50.
Assay [5] is described as follows: Inhibition of Porphyromonas gingivalis arginine gingipain.
The nature of assay [6]: Selectivity for Porphyromonas gingivalis arginine gingipain over cathepsin B.
Assay [7] can be described thus: Selectivity for Porphyromonas gingivalis arginine gingipain over trypsin.
Assay [8] in a line: Inhibition of trypsin-like activity of human 20S proteasome.
Assay [9] can be described thus: Inhibition of post-glutamyl peptide hydrolase-like activity of human 20S proteasome.
In the next assay the test system is PC-3. Nature of the assay: Growth inhibition of human PC3 cells. The class given is functional, cell-based.
Another assay relates to Mus musculus. Nature of the assay: Analgesic activity in iv dosed mouse. The class given is functional.
A further assay has as its target Coagulation factor XI (Homo sapiens, UniProt P03951).
The target in another assay is Coagulation factor X (Homo sapiens, UniProt P00742). The assay can be described thus: Inhibition of human factor 10a.
Coagulation factor X, sequence (P00742 41-179 limits assumed): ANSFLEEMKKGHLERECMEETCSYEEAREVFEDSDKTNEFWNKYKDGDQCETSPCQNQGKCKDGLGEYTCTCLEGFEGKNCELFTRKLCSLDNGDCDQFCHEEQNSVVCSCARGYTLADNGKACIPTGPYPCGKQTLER
Coagulation factor X, sequence (P00742 235-488 limits assumed): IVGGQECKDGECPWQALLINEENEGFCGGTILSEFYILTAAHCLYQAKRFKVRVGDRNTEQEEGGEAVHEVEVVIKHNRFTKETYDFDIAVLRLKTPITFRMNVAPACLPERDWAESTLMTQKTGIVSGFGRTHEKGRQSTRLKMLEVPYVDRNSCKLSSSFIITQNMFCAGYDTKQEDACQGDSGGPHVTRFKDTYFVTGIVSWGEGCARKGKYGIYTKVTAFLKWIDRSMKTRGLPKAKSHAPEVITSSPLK
The target in a further assay is Prothrombin (Homo sapiens, UniProt P00734). Nature of the assay: Inhibition of human alpha-thrombin.

Coagulation factor XI, sequence (P03951 19-387 limits assumed): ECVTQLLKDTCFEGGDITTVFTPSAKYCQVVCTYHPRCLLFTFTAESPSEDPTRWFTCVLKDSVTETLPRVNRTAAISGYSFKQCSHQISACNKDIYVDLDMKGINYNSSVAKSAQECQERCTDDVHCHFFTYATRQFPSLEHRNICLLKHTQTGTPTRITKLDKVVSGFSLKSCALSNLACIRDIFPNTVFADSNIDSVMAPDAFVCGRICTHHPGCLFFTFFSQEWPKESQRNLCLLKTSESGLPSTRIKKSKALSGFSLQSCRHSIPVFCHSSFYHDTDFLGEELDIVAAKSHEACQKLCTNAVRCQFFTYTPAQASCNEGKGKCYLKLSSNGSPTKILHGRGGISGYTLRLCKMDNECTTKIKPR
Coagulation factor XI, sequence (P03951 388-625 limits assumed): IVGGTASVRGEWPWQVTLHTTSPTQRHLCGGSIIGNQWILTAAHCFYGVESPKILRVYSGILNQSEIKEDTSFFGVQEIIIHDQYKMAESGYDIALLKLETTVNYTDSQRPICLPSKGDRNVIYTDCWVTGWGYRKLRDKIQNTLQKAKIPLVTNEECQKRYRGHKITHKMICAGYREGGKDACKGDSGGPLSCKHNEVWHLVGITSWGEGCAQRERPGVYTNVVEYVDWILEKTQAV

On to `CC(C)(C)c1nnc(C(=O)[C@@H]2CCCN2)o1`, for which the Ki on Proline iminopeptidase turned out to be 500 nM. That is a sub-micromolar value.
For `Nc1nc(N)c(CCCCCC(=O)c2nc3ccccc3o2)c(=O)[nH]1`, the Ki in assay [1] was > 100000 nM; in assay [2], 15000 nM; in [3], > 100000 nM.
The compound `CCC[C@H](NC(=O)C1(NC(=O)c2ccc(N(C)C)cc2)CCCCC1)C(=O)c1nnc(-c2ccco2)o1` yielded an IC50 with Osteoclast of 130 nM. That is a sub-micromolar value.
In the case of `O=C(Cc1ccccc1)NCC(=O)c1nc(C(=O)O)cs1`, the Ki at Beta-lactamase came to 110000 nM.
In the case of `O=C(c1cc(-c2ccccc2)on1)[C@@H]1CCCN1C(=O)[C@@H]1CCCN1C(=O)OCc1ccccc1`, the EC50 worked out at 6700 µg/mL (≈ 14.1 mM) in the assay on Trypanosoma cruzi and 2200 µg/mL (≈ 4.65 mM) in assay [4].
Regarding `NCCCC[C@H](NC(=O)C1CCCN(C(=O)CCc2ccccc2)C1)C(=O)c1nc2ccccc2s1` (stereo partly drawn), in assay [5], the Ki is 0.9 nM. In addition, the Selectivity ratio in [6] was 120000; in [7], 30.
As for `Cc1ccc(S(=O)(=O)N[C@@H](CC(=O)NCC(C)(C)C)C(=O)N[C@@H](C)C(=O)N[C@@H](CC(C)C)C(=O)c2nnc(-c3ccccc3)o2)cc1`, the figures for the Ki in assay [8] and in assay [9] were > 300000 nM and > 900000 nM, respectively. The midpoint of inhibition with PC-3, the IC50, lay at 200 nM.
Regarding `O=C(CCCCCCc1ccccc1)c1ncc(-c2ccccn2)o1`, in the assay with Mus musculus, the ED50 was found to be 1.9 mg/kg.
Consider `CC(C)[C@H](NC(=O)[C@H](CC1CCCCC1)NC(=O)N[C@H](C)c1ccc(Br)cc1)C(=O)N[C@@H](CCCNC(=N)N)C(=O)c1nccs1`, for which the IC50 on Coagulation factor XI stood at 10 nM; against Coagulation factor X, 2700 nM; on Prothrombin it was 980 nM.
